Data published in the supplement of paper PMC10307832.

Columns and labels:
Assay in all cases: relative viability (nuclei count vs DMSO), 5 days (fraction); higher = more cells survive
[1] = compound: C=CC(=O)N1CCC[C@@H](n2nc(-c3ccc(Oc4ccccc4)cc3)c3c(N)ncnc32)C1 [Ibrutinib] + COc1cc2c(Oc3ccc(NC(=O)C4(C(=O)Nc5ccc(F)cc5)CC4)cc3F)ccnc2cc1OCCCN1CCOCC1 [Foretinib] (partner 0.25 µM)
Method in brief: (§1)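 Relative viability divides the nuclei count in treated wells by that in vehicle wells. Lung cancer cell lines were seeded in 1536-well plates, dosed by pin tool the next day, and fixed and stained after 5 days in one step with final 0.05% Triton X-100, 1% formaldehyde and 1 ug/ml Hoechst. Dosing was a single drug or a fixed anchor-drug dose plus five library-drug doses (not always all listed) in √10 steps, and values are medians of duplicate plates imaged at 4×.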

[2] = compound: C=CCc1cccc(/C=N/NC(=O)CN2CCN(Cc3ccccc3)CC2)c1O [PAC-1] + Cc1nc(Nc2ncc(C(=O)Nc3c(C)cccc3Cl)s2)cc(N2CCN(CCO)CC2)n1 [Dasatinib] (partner 0.075 µM)
Method in brief: as §1

[3] = compound: C=CCc1cccc(/C=N/NC(=O)CN2CCN(Cc3ccccc3)CC2)c1O [PAC-1] + CC1(C)CCC(c2ccc(Cl)cc2)=C(CN2CCN(c3ccc(C(=O)NS(=O)(=O)c4ccc(N[C@H](CCN5CCOCC5)CSc5ccccc5)c(S(=O)(=O)C(F)(F)F)c4)cc3)CC2)C1 [Navitoclax] (partner 0.5 µM)
Method in brief: as §1

[4] = compound: C=CCc1cccc(/C=N/NC(=O)CN2CCN(Cc3ccccc3)CC2)c1O [PAC-1] + COc1cc2c(Oc3ccc(NC(=O)C4(C(=O)Nc5ccc(F)cc5)CC4)cc3F)ccnc2cc1OCCCN1CCOCC1 [Foretinib] (partner 0.25 µM)
Method in brief: as §1

Cell Line | relative viability ([1]; first compound 0.005 µM) | relative viability ([1]; first compound 0.01581 µM) | relative viability ([1]; first compound 0.05 µM) | relative viability ([1]; first compound 0.1581 µM) | relative viability ([1]; first compound 0.5 µM) | relative viability ([2]; first compound 0.02 µM) | relative viability ([2]; first compound 0.06325 µM) | relative viability ([2]; first compound 0.2 µM) | relative viability ([2]; first compound 2 µM) | relative viability ([3]; first compound 0.02 µM) | relative viability ([3]; first compound 0.06325 µM) | relative viability ([3]; first compound 0.2 µM) | relative viability ([3]; first compound 2 µM) | relative viability ([4]; first compound 0.02 µM) | relative viability ([4]; first compound 0.06325 µM) | relative viability ([4]; first compound 0.2 µM) | relative viability ([4]; first compound 2 µM)
201T | 1.02 | 1 | 0.965 | 1.03 | 1.08 | 0.571 | 0.595 | 0.589 | 0.58 | 1.21 | 1.23 | 1.21 | 1.16 | 0.998 | 1.22 | 1.15 | 1.11
A549 | 0.878 | 0.852 | 1.03 | 0.984 | 0.877 | – | – | – | – | 1.25 | 1.18 | 1.14 | 1.23 | 0.952 | 0.964 | 1.04 | 1.01
A-427 | 1.01 | 0.944 | 1.04 | – | 1.02 | 0.77 | 0.665 | 0.666 | 0.697 | 1 | 0.92 | 0.908 | 0.907 | 1.12 | 0.946 | 1.09 | 1.08
ABC-1 | 1.27 | 0.961 | 1.28 | 1.09 | 0.897 | 0.501 | 0.495 | 0.541 | 0.484 | – | – | – | – | 0.991 | 1.19 | 1 | 1.01
BEN | – | 0.724 | 0.418 | 0.444 | 0.672 | 0.272 | 0.366 | 0.318 | 0.327 | 0.0891 | 0.0706 | 0.0845 | 0.0674 | 0.68 | 0.651 | 0.589 | 0.678
CAL-12T | 1.11 | 0.958 | 0.981 | 1.14 | 1.19 | 0.288 | 0.393 | 0.459 | 0.404 | 1.43 | 1.21 | 1.31 | 1.26 | 1.15 | 1.1 | 0.978 | 1.08
COR-L23 | 1.08 | 0.886 | 1.04 | 0.926 | 1 | 0.472 | 0.48 | 0.453 | 0.506 | 0.874 | 0.984 | 0.908 | 0.999 | 1.01 | 1.02 | 0.902 | 0.951
COR-L 105 | 1 | 0.933 | 0.969 | 1.04 | 0.602 | 0.361 | 0.365 | 0.34 | 0.412 | 0.852 | 0.725 | 1.38 | 0.841 | 0.991 | 1.16 | 1.25 | 1.31
Calu-6 | 0.961 | 0.853 | 0.918 | 0.844 | 0.826 | – | – | – | – | 0.817 | 0.861 | 0.878 | 0.855 | 0.883 | 0.89 | 0.952 | 0.944
ChaGo-K-1 | 0.842 | 0.902 | 0.937 | 0.954 | 0.853 | 0.653 | 0.647 | 0.534 | 0.619 | 1.2 | 1.08 | 1.21 | 1.08 | 0.974 | 0.949 | 0.866 | 1.04
EBC-1 | 0.0898 | 0.102 | 0.102 | 0.0945 | 0.098 | – | – | – | – | 0.382 | 0.336 | 0.443 | 0.33 | 0.105 | 0.0969 | 0.139 | 0.121
EKVX | 0.835 | 0.762 | 0.802 | 0.617 | 0.232 | 0.587 | 0.606 | 0.569 | 0.515 | 1.07 | 0.926 | 0.86 | 0.979 | 0.886 | 0.792 | 0.69 | 0.427
EMC-BAC-2 | 0.88 | 0.894 | – | 0.969 | 0.797 | 0.388 | 0.303 | 0.346 | 0.326 | 1.14 | 1.22 | 1.19 | 1.14 | 0.999 | 1.04 | 0.936 | 0.996
EPLC-272H | 0.675 | 0.474 | 0.409 | 0.584 | 0.434 | 0.447 | 0.365 | 0.387 | 0.268 | – | 1.09 | 1 | 1.04 | 0.605 | 0.683 | 0.68 | 0.721
H3255 | 0.66 | 0.986 | 0.711 | 0.993 | 0.53 | 0.361 | 0.288 | 0.284 | 0.33 | 0.544 | 0.537 | 0.561 | 0.595 | 0.925 | 0.814 | 0.883 | 0.89
HARA | 0.917 | 0.717 | 0.705 | 0.933 | 0.403 | 0.336 | 0.251 | 0.26 | 0.26 | 1.15 | 1.11 | 1.14 | 1.15 | 0.675 | 0.833 | 0.863 | 0.918
HCC-15 | 0.978 | 0.929 | 1.08 | 1.08 | 1.01 | 0.631 | 0.675 | 0.606 | 0.619 | 0.735 | 0.685 | 0.676 | 0.74 | 0.993 | 1.08 | 0.985 | 1.04
HCC-44 | – | – | – | – | – | – | – | – | – | 1.01 | 0.977 | 0.978 | 1.01 | – | – | – | –
HCC-78 | 0.651 | 0.489 | 0.527 | 0.547 | 0.348 | 0.335 | 0.331 | 0.404 | 0.394 | 0.719 | 0.748 | 0.699 | 0.646 | 0.522 | 0.591 | 0.634 | 0.589
HCC-366 | 1.04 | 0.909 | 0.958 | 0.866 | 0.881 | 0.618 | 0.558 | 0.617 | 0.733 | 1.13 | 1.01 | 1.1 | 1.09 | 0.903 | 0.925 | 0.899 | 0.989
